# Measurements: patent US20250009743A1, “METHODS OF TREATING CANCERS USING STING AGONISTS” (Dana-Farber Cancer Institute, Inc., priority 2021, published 2025)
# Experiments:
# BP-sgSTING tumors = test: BP-sgSTING tumor growth and survival in FVB mice; assay type: in vivo, mouse; settings: olaparib 50 mg/kg i.p. q.d.
# Procedure: Primary mammary tumor cells for orthotopic injection were resuspended in serum-free DMEM containing 40% matrigel (Corning). 5×10^5 tumor cells in a total volume of 100 μL were injected orthotopically into the thoracic mammary fat pads of 8-week-old female FVB/NJ mice (The Jackson Laboratory). Tumor growth was examined by measuring the greatest longitudinal diameter (length) and the greatest transverse diameter (width) with digital calipers, and tumor volume was calculated by use of the modified ellipsoid formula (0.52×length×width2). Tumors were measured 2-3 times a week. All tumor measurements within single cohorts were performed by the same researcher. Tumor-bearing mice were randomized prior to start of treatment. Drug treatments were started when mean tumor volumes approximated 50-100 mm3. Mice were euthanized by CO2 inhalation when tumor volumes met humane endpoints described in the IACUC (20 mm diameter) protocols or upon severe health deterioration.
# Olaparib (MedChem, #HY-10162) was prepared by diluting 100 mg/l mL stocks in DMSO with 10% (2-Hydroxypropyl)-β-cyclodextrin (HPCD, MedChem, #101103) in PBS and administered immediately after drug preparation by intraperitoneal (i.p.) injection at a dose of 50 mg/kg body weight daily. DMXAA (Sigma, #D5817) was reconstituted at 10 mg/mL in 7.5% NaHCO3(Gibco). […]
# PBM-R tumors [1] = test: PBM-R (PARPi-resistant) ovarian tumor burden in syngeneic FVB/NJ mice; assay type: in vivo, mouse; settings: for PBM-R tumor growth inhibition: 14 days, olaparib 50 mg/kg i.p. daily, MSA-2 25 mg/kg i.p. three times a week, FIG. 23A
# Procedure: The PBM and PBM-R tumor cells were transplanted orthotopically into syngeneic FVB/NJ mice to generated tumors for drug evaluation. Tumor-bearing mice were equivalently divided into control and treatment groups according to the luminescent intensity as previously described (Ding et al., 2018; Cell Rep 25, 2972-2980.e2975). Olaparib (AZD2281) was administered daily by i.p. injection at dose of 50 mg/kg body weight. Anti-PD-1 antibody (clone, 332.8H3) was diluted in PBS (250 μg/100 μl/mouse) and injected by i.p. every 3 days. MSA-2 was prepared by diluting 50 mg/ml stock in DMSO with PBS (pH 8.0) and administered every other day (three times a week, two weeks on followed by one week off) by i.p. injection at dose of 25 mg/kg body weight. The endpoints were determined by tumor burden and ascites.
# PBM-R tumors [2] = test: Flow cytometry of tumor-infiltrating immune cells in PBM-R tumor-bearing mice; assay type: in vivo, mouse; settings: 14 days; for STING pathway and activated (CD86^+) conventional DCs (cDCs): FIG. 23D
# Procedure: Tumors were chopped and digested in collagenase buffer as described previously (Ding et al., 2018 Cell Rep 25, 2972-2980.e2975). Single cell suspensions of tumor and ascites were obtained by filtering through 70 um strainers and treated with 1× eBioscience RBC lysis buffer (Thermo Fisher) before staining. Single cells suspensions were incubated with LIVE/DEAD Fixable Aqua Dead Cell Stain (Life Technologies, Cat #L34965) for 30 min and then blocked with anti-CD16/32 (Biolegend, clone 93) for 20 min on ice. Samples were then incubated with appropriate antibodies for 30 min on ice. Foxp3 staining buffer set (eBioscience, Cat #00-5523-00) was applied for intracellular markers staining. For the intracellular cytokine analysis, cells were stimulated with Leukocyte Activation Cocktail (BD Biosciences, Cat #550583) at 37° C. for 4-6 hours prior to FACS staining. The following antibodies were used in this study: antibodies were purchased from BioLegend unless otherwise indicated: CD45 (clone 30-F11), CD3ε (clone 145-2C11), CD4 (clone RM4-5), CD8 (clone 53-6.7), CD44 (clone IM7), CD62L (MEL-14), CD25 (PC61), IFNγ (clone XMG1.2), TNFα (clone MP6-XT22), CD11b (clone M1/70), CD11c […], F4/80 (clone BM8), Ly-6C (clone HK1.4), Ly-6G (clone 1A8), MHC-II (clone M5/114.15.2), CD80 (clone 16-10A1), CD86 (clone GL-1), MHC-I (clone KH114), FoxP3 (clone FJK-16 s; eBioscience), Phospho-IRF-3 (Ser396) (clone D601M, Cell signaling technology) and Phospho-TBK1/NAK (Ser172) (clone D52C2, Cell signaling technology). The following human antibodies were used in this study: cell surface markers includes CD45 (clone H130), CD11b (clone M1/70), CD11c (clone Bu15), CD80 (clone 2D10), CD86 (clone IT2.2), CD14 (clone 63D3), CD15 […], HLA-DR (clone L243) and HLA-A,B,C (clone W6/32); intracellular markers include CD163 (clone GHI/61), CD68 (clone Y1/82A) and CD206 (clone 15-2). Flow cytometry was performed on an LSRII (BD Biosciences) or Fortessa HTS (BD Biosciences) at DFCI Flow Cytometry Core, and all the data were analyzed using FlowJo software.
# human BMDMs = test: Polarization of human BMDMs cultured in CM from ovarian PDXs; assay type: cell-based
# Procedure: For ex vivo culture of human macrophages, human BMDMs were generated from bone marrow mononuclear cells (BMMs) (CAT #70001) obtained from […] Technologies. Briefly, BMMs were cultured in DMEM containing 10% FBS, 55 μM 2-Mercaptoethanol (CAT #21985023, Thermo Fisher) and 50 ng/ml M-CSF for 5-7 days with media replacement every 3 days to obtain matured macrophages (BMDMs). […] Flow cytometry analysis was preformed to analyze the phenotypes of macrophages for both mouse and human BMDMs.
compound,measurement,setting,value
"Cc1ccc2c(=O)c3cccc(CC(=O)O)c3oc2c1C [DMXAA, 5,6-dimethyl-xanthenone-4-acetic acid]",BP-sgSTING tumor growth,"BP-sgSTING tumors; DMXAA 10 mg/kg i.p. weekly, FIG. 11H",no significant impact
same,BP-sgSTING tumor growth,"BP-sgSTING tumors; DMXAA 10 mg/kg intratumoral one dose per week, FIG. 12B",completely refractory
COc1cc2cc(C(=O)CCC(=O)O)sc2cc1OC [MSA-2],PBM-R tumor growth inhibition,PBM-R tumors [1],little or no effect
same,PBM-R tumor weight,"PBM-R tumors [1]; MSA-2 25 mg/kg i.p. three times per week with olaparib 50 mg/kg + anti-PD-1, two weeks, FIG. 14D",sensitizes PARPi-resistant tumors to olaparib in vivo
same,proportion of TAMs,PBM-R tumors [2]; FIG. 23B,dramatically decreased
same,ratio of M1/M2,PBM-R tumors [2]; FIG. 23C,increase
same,STING pathway and activated (CD86^+) conventional DCs (cDCs),PBM-R tumors [2],activated the STING pathway and increased tumor-infiltrating activated (CD86^+) conventional DCs
same,M2-like macrophage polarization induced by ovarian PDXs,"human BMDMs; MSA-2 added, FIG. 25E",reversed
O=C(c1cc(Cc2n[nH]c(=O)c3ccccc23)ccc1F)N1CCN(C(=O)C2CC2)CC1 [olaparib],PBM-R tumor growth inhibition,PBM-R tumors [1],little or no effect
same,response of PBM-R-shStat3 tumors in vivo,"PBM-R tumors [1]; PBM-R cells with STAT3 knockdown, FIG. 19I",became sensitive
same,PBM-R tumor response in vivo,"PBM-R tumors [1]; orthotopically re-transplanted to syngeneic host mice, FIG. 15E",indeed resistance to PARPi in vivo
same,STING pathway and activated (CD86^+) conventional DCs (cDCs),PBM-R tumors [2],activated the STING pathway and increased tumor-infiltrating activated (CD86^+) conventional DCs
same,M2-like polarization induced by ovarian PDXs,"human BMDMs; CM of olaparib-treated PDXs, FIG. 25C",further enhance
